{"source": "patent US9340590B2", "about": "(priority 2011, dated 2016)", "assay_in_all_cases": "cell-based", "key": {"hNav1.3": {"target": "hNav1.3 (Homo sapiens, UniProt Q9NY46)", "settings": "IonWorks Quattro, read-out: IWQ Use Nav1.3"}, "hNav1.7": {"target": "hNav1.7 (Homo sapiens, UniProt Q15858)", "sequence (Q15858 whole entry, looked up)": "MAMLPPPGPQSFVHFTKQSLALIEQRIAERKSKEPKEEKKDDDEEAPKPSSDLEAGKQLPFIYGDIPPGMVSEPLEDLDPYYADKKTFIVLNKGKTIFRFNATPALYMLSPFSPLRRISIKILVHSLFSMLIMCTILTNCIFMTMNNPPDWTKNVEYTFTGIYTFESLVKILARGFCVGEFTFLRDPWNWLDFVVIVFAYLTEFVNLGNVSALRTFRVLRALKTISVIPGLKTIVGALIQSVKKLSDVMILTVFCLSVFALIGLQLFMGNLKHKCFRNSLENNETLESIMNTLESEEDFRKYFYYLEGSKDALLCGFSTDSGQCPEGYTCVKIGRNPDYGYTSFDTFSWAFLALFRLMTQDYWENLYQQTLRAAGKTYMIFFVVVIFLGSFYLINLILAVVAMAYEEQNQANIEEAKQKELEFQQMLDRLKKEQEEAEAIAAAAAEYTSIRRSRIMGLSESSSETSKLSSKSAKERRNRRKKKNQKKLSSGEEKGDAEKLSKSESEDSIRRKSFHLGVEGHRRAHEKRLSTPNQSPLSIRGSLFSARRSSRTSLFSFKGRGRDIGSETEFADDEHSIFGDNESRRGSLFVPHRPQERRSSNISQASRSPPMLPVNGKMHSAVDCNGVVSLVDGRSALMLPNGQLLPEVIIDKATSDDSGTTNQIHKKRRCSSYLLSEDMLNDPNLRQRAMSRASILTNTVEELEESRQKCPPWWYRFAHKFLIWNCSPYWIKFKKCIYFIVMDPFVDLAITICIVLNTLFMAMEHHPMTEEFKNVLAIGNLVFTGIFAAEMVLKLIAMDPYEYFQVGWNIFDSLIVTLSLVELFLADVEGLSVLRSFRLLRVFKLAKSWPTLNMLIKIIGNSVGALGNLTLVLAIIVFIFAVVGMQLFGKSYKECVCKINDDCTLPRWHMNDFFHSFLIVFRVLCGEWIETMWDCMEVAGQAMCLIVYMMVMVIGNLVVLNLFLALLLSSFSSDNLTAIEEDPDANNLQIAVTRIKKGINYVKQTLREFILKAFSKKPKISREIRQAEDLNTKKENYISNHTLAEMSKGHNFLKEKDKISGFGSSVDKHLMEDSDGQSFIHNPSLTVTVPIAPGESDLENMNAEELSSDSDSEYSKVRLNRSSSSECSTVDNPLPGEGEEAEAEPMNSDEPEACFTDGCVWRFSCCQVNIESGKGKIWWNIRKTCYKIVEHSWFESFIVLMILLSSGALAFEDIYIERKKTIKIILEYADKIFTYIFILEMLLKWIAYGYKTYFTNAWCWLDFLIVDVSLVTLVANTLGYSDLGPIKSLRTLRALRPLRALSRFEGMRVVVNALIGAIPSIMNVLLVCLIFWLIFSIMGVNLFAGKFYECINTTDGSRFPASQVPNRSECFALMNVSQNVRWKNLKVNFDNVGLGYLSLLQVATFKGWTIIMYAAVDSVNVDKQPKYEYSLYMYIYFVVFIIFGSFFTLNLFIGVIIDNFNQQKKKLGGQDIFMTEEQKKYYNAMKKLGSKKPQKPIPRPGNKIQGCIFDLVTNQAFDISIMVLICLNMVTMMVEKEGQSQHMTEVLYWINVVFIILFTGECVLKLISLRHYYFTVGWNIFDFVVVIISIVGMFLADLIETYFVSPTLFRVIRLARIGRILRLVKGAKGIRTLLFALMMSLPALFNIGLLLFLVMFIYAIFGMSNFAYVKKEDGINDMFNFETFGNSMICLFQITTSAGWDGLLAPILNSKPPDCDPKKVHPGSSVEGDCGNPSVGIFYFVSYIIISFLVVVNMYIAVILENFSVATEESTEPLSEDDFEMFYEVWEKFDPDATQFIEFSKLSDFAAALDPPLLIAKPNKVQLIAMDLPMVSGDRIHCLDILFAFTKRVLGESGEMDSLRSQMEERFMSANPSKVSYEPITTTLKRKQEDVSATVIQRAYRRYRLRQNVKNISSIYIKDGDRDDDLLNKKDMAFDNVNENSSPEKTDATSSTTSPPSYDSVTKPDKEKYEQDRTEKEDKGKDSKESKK", "assay_type": "cell-based", "settings": "IonWorks Quattro, read-out: IWQ Use Nav1.7"}, "hNav1.5": {"target": "hNav1.5 (Homo sapiens, UniProt Q14524)", "sequence (Q14524 whole entry, looked up)": "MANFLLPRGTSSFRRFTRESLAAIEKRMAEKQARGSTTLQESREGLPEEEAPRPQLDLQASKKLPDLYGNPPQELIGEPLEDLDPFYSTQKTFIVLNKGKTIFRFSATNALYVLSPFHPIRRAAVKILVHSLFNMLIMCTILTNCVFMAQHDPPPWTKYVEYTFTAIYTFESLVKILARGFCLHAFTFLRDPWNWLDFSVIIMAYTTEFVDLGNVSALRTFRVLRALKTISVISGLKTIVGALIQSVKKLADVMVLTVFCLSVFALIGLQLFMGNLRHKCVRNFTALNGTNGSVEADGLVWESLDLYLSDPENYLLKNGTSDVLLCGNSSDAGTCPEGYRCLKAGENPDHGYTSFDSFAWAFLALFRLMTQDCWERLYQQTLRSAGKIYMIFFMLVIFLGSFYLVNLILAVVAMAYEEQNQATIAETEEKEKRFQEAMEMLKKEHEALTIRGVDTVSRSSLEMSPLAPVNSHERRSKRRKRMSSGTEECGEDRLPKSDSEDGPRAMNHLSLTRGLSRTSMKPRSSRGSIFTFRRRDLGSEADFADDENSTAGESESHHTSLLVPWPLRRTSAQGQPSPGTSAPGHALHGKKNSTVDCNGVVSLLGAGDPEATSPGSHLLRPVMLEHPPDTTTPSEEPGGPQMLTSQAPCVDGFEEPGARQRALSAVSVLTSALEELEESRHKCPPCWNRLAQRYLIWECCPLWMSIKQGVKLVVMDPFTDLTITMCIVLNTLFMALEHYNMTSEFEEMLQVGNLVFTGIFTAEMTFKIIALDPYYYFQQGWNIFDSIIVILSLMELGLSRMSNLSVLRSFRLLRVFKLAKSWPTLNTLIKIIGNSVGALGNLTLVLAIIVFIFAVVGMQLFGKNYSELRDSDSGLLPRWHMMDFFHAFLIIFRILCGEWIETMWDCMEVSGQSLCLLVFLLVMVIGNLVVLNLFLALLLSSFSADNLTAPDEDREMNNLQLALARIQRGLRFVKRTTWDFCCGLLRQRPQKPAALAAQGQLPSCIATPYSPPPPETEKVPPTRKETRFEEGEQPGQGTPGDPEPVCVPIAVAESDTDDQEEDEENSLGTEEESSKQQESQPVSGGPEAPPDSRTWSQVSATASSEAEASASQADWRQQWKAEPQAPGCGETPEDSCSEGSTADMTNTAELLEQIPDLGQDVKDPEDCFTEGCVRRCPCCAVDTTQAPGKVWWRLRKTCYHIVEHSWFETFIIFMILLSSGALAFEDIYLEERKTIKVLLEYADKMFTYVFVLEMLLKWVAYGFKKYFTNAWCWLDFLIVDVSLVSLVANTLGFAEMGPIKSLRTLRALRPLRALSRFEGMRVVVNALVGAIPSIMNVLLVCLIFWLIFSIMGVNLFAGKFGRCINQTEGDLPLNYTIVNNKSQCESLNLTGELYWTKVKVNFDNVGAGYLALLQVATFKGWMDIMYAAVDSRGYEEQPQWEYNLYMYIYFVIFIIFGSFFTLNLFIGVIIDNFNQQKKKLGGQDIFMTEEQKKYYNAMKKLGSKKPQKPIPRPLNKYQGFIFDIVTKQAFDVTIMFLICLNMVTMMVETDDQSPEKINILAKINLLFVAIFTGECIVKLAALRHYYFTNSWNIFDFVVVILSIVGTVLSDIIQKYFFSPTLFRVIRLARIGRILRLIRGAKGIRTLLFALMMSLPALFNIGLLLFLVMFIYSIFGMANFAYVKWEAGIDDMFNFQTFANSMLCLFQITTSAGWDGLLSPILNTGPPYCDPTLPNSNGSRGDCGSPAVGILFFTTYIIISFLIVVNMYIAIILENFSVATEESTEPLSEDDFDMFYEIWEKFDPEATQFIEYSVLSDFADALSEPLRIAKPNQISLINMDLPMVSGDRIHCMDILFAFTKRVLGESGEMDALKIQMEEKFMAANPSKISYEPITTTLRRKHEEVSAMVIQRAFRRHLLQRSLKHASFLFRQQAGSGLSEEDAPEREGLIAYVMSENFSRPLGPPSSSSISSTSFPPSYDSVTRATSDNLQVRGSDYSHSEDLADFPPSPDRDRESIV", "settings": "IonWorks Quattro, read-out: IWQ Use Nav1.5"}, "[1]": {"settings": "clamped to −110 mV, depolarized to −10 mV, 5 min after compound, n=2"}}, "note": "Like-named read-outs stand apart in the source and are kept apart here. Positions of bridges follow the written chain, without caps; N, C: chain ends. Non-standard residues stand in square brackets, D forms with d. Residues, ends and D or L forms follow the SMILES beside them. Groups on a side chain read outwards from the residue. Pra = C#CC[C@H](N)C(=O)O; Abu = CC[C@H](N)C(=O)O", "data": [{"compound": "C#CC[C@H](NC(C)=O)C(=O)NCCCC[C@@H]1NC(=O)[C@H](CC(=O)O)NC(=O)[C@@H]2CCCN2C(=O)[C@H]([C@@H](C)CC)NC(=O)[C@@H]2CSSC[C@@H]3NC(=O)[C@H](C(C)C)NC(=O)[C@H](CC(C)C)NC(=O)[C@H](CC(N)=O)NC(=O)[C@@H]4CCCN4C(=O)[C@H](CCCNC(=N)N)NC(=O)[C@H](CSSC[C@H](NC(=O)[C@@H](N)CC(=O)O)C(=O)N[C@@H](CC(C)C)C(=O)NCC(=O)N[C@@H](CC)C(=O)N[C@@H](CC(C)C)C(=O)N[C@@H](CCCNC(=N)N)C(=O)N[C@@H](CCCCN)C(=O)N2)NC(=O)[C@H](CSSC[C@@H](C(=O)N[C@@H](CCCCN)C(=O)N[C@@H](Cc2ccc(O)cc2)C(=O)N[C@H](C(=O)N[C@@H](Cc2ccccc2)C(N)=O)C(C)C)NC(=O)[C@H](Cc2c[nH]c4ccccc24)NC(=O)[C@H](CCCCN)NC(=O)[C@H](Cc2c[nH]cn2)NC(=O)[C@H]([C@@H](C)O)NC(=O)[C@H](CCCNC(=N)N)NC(=O)[C@H](CO)NC3=O)NC(=O)[C@H](CCCCN)NC(=O)[C@H](CC(=O)O)NC1=O", "note": "[compound 799] (H-DCLG[Abu]LRKCIPDK([Pra-Ac])DKCCRPNLVCSRTHKWCKYVF-NH2; disulfide 2-17, 9-23, 16-30)", "values": [{"measurement": "IC50", "setting": "hNav1.3; use-dependent block, hNav1.3", "value": 0.7, "unit": "µM"}, {"measurement": "IC50", "setting": "hNav1.7; use-dependent block, hNav1.7", "value": 0.75, "unit": "µM"}, {"measurement": "IC50", "setting": "hNav1.5; use-dependent block, hNav1.5", "value": 28.1, "unit": "µM"}]}, {"compound": "CC[C@H](C)[C@@H]1NC(=O)[C@@H]2CSSC[C@@H]3NC(=O)[C@H](C(C)C)NC(=O)[C@H](CC(C)C)NC(=O)[C@H](CC(N)=O)NC(=O)[C@@H]4CCCN4C(=O)[C@H](CCCNC(=N)N)NC(=O)[C@H](CSSC[C@H](NC(=O)[C@@H](N)CC(=O)O)C(=O)N[C@@H](CC(C)C)C(=O)NCC(=O)N[C@@H](Cc4ccccc4)C(=O)N[C@@H](CCSC)C(=O)N[C@@H](CCCNC(=N)N)C(=O)N[C@@H](CCCCN)C(=O)N2)NC(=O)[C@H](CSSC[C@@H](C(=O)N[C@@H](CCCCN)C(=O)N[C@@H](Cc2ccc(O)cc2)C(=O)N[C@@H](CCCCN)C(=O)N[C@@H](Cc2ccccc2)C(N)=O)NC(=O)[C@H](Cc2c[nH]c4ccccc24)NC(=O)[C@H](CCCCN)NC(=O)[C@H](Cc2cnc[nH]2)NC(=O)[C@H]([C@@H](C)O)NC(=O)[C@H](CCCNC(=N)N)NC(=O)[C@H](CO)NC3=O)NC(=O)[C@H](CCCCN)NC(=O)[C@H](CC(=O)O)NC(=O)[C@H](CC(N)=O)NC(=O)[C@H](CC(=O)O)NC(=O)[C@@H]2CCCN2C1=O", "note": "[compound 58] (H-DCLGFMRKCIPDNDKCCRPNLVCSRTHKWCKYKF-NH2; disulfide 2-17, 9-23, 16-30)", "values": [{"measurement": "IC50", "setting": "hNav1.3; Table 26, use, […]", "value": 0.07, "unit": "µM"}, {"measurement": "IC50", "setting": "hNav1.7; Table 26, use, […]", "value": 0.07, "unit": "µM"}, {"measurement": "IC50", "setting": "hNav1.5; Table 26, use, […]", "value": 9.56, "unit": "µM"}]}, {"compound": "CC[C@H](C)[C@@H]1NC(=O)[C@@H]2CSSC[C@@H]3NC(=O)[C@H](C(C)C)NC(=O)[C@H](CC(C)C)NC(=O)[C@H](CC(N)=O)NC(=O)[C@@H]4CCCN4C(=O)[C@H](CCCNC(=N)N)NC(=O)[C@H](CSSC[C@H](NC(=O)[C@@H](N)Cc4ccc(O)cc4)C(=O)N[C@@H](CC(C)C)C(=O)NCC(=O)N[C@@H](Cc4ccccc4)C(=O)N[C@@H](CCSC)C(=O)N[C@@H](CCCNC(=N)N)C(=O)N[C@@H](CCCCN)C(=O)N2)NC(=O)[C@H](CSSC[C@@H](C(=O)N[C@@H](CCCCN)C(=O)N[C@@H](Cc2ccc(O)cc2)C(=O)N[C@H](C(=O)N[C@@H](Cc2ccccc2)C(N)=O)C(C)C)NC(=O)[C@H](Cc2c[nH]c4ccccc24)NC(=O)[C@H](CCCCN)NC(=O)[C@H](Cc2c[nH]cn2)NC(=O)[C@H]([C@@H](C)O)NC(=O)[C@H](CCCNC(=N)N)NC(=O)[C@H](CO)NC3=O)NC(=O)[C@H](CCCCN)NC(=O)[C@H](CC(=O)O)NC(=O)[C@H](CC(N)=O)NC(=O)[C@H](CC(=O)O)NC(=O)[C@@H]2CCCN2C1=O", "note": "[SEQ ID NO: 97] (H-YCLGFMRKCIPDNDKCCRPNLVCSRTHKWCKYVF-NH2; disulfide 2-17, 9-23, 16-30)", "values": [{"measurement": "IC50", "setting": "hNav1.3; [1]", "value": 0.13, "unit": "µM"}, {"measurement": "IC50", "setting": "hNav1.7; [1]", "value": 0.16, "unit": "µM"}, {"measurement": "IC50", "setting": "hNav1.5; [1]", "value": 10.6, "unit": "µM"}]}, {"compound": "CC[C@H](C)[C@@H]1NC(=O)[C@@H]2CSSC[C@@H]3NC(=O)[C@H](C(C)C)NC(=O)[C@H](CC(C)C)NC(=O)[C@H](CC(N)=O)NC(=O)[C@@H]4CCCN4C(=O)[C@H](CCCNC(=N)N)NC(=O)[C@H](CSSC[C@H](NC(=O)[C@@H](N)CC(=O)O)C(=O)N[C@@H](CC(C)C)C(=O)NCC(=O)N[C@@H](Cc4ccccc4)C(=O)N[C@@H](CCSC)C(=O)N[C@@H](CCCNC(=N)N)C(=O)N[C@@H](CCCCN)C(=O)N2)NC(=O)[C@H](CSSC[C@@H](C(=O)N[C@@H](CCCCN)C(=O)N[C@@H](Cc2ccc(O)cc2)C(=O)N[C@@H](Cc2c[nH]c4ccccc24)C(=O)N[C@@H](Cc2ccccc2)C(N)=O)NC(=O)[C@H](Cc2c[nH]c4ccccc24)NC(=O)[C@H](CCCNC(=N)N)NC(=O)[C@H](Cc2c[nH]cn2)NC(=O)[C@H]([C@@H](C)O)NC(=O)[C@H](CCCNC(=N)N)NC(=O)[C@H](CO)NC3=O)NC(=O)[C@H](CCCCN)NC(=O)[C@H](CC(=O)O)NC(=O)[C@H](CC(N)=O)NC(=O)[C@H](CC(=O)O)NC(=O)[C@@H]2CCCN2C1=O", "note": "[compound 444] (H-DCLGFMRKCIPDNDKCCRPNLVCSRTHRWCKYWF-NH2; disulfide 2-17, 9-23, 16-30)", "values": [{"measurement": "IC50", "setting": "hNav1.3; use-dependent block, hNav1.3", "value": 0.04, "unit": "µM"}, {"measurement": "IC50", "setting": "hNav1.7; use-dependent block, hNav1.7", "value": 0.03, "unit": "µM"}, {"measurement": "IC50", "setting": "hNav1.5; use-dependent block, hNav1.5", "value": "> 5", "unit": "µM"}]}, {"compound": "CSCC[C@@H]1NC(=O)[C@H](C(C)C)NC(=O)CNC(=O)[C@H](CC(C)C)NC(=O)[C@@H](NC(=O)[C@@H](N)CC(=O)O)CSSC[C@@H]2NC(=O)[C@@H]3CSSC[C@@H](C(=O)N[C@@H](CCCCN)C(=O)N[C@@H](Cc4ccc(O)cc4)C(=O)N[C@H](C(=O)N[C@@H](Cc4ccccc4)C(N)=O)C(C)C)NC(=O)[C@H](Cc4c[nH]c5ccccc45)NC(=O)[C@H](CCCCN)NC(=O)[C@H](Cc4c[nH]cn4)NC(=O)[C@H]([C@@H](C)O)NC(=O)[C@H](CCCNC(=N)N)NC(=O)[C@H](CO)NC(=O)[C@H](CSSC[C@H](NC(=O)[C@H](CCCCN)NC(=O)[C@H](CCCNC(=N)N)NC1=O)C(=O)N[C@@H](CC(=O)O)C(=O)N1CCC[C@H]1C(=O)N[C@@H](CCC(=O)O)C(=O)N[C@@H](CC(N)=O)C(=O)N[C@@H](CC(=O)O)C(=O)N[C@@H](CCCCN)C(=O)N3)NC(=O)[C@H](C(C)C)NC(=O)[C@H](CC(C)C)NC(=O)[C@H](CC(N)=O)NC(=O)[C@@H]1CCCN1C(=O)[C@H](CCCNC(=N)N)NC2=O", "note": "[compound 712] (H-DCLGVMRKCDPENDKCCRPNLVCSRTHKWCKYVF-NH2; disulfide 2-17, 9-23, 16-30)", "values": [{"measurement": "IC50", "setting": "hNav1.3; use-dependent protocol, hNav1.3", "value": 1.7, "unit": "µM"}, {"measurement": "IC50", "setting": "hNav1.7; use-dependent protocol, hNav1.7", "value": 0.46, "unit": "µM"}, {"measurement": "IC50", "setting": "hNav1.5; use-dependent protocol, hNav1.5", "value": 34, "unit": "µM"}]}, {"compound": "CC[C@H](C)[C@@H]1NC(=O)[C@@H]2CSSC[C@@H]3NC(=O)[C@H](C(C)C)NC(=O)[C@H](CC(C)C)NC(=O)[C@H](CC(N)=O)NC(=O)[C@@H]4CCCN4C(=O)[C@H](CCCNC(=N)N)NC(=O)[C@H](CSSC[C@H](NC(=O)[C@@H](N)CC(=O)O)C(=O)N[C@@H](CC(C)C)C(=O)NCC(=O)N[C@@H](C)C(=O)N[C@@H](CC(C)C)C(=O)N[C@@H](CCCNC(=N)N)C(=O)N[C@@H](CCCCN)C(=O)N2)NC(=O)[C@H](CSSC[C@@H](C(=O)N[C@@H](CCCCN)C(=O)N[C@@H](Cc2ccc(O)cc2)C(=O)N[C@H](C(=O)N[C@@H](Cc2ccccc2)C(=O)O)C(C)C)NC(=O)[C@H](Cc2c[nH]c4ccccc24)NC(=O)[C@H](CCCCN)NC(=O)[C@H](Cc2c[nH]cn2)NC(=O)[C@H]([C@@H](C)O)NC(=O)[C@H](CCCNC(=N)N)NC(=O)[C@H](CO)NC3=O)NC(=O)[C@H](CCCCN)NC(=O)[C@H](CC(=O)O)NC(=O)[C@H](CC(N)=O)NC(=O)[C@H](CC(=O)O)NC(=O)[C@@H]2CCCN2C1=O", "note": "[compound 600] (H-DCLGALRKCIPDNDKCCRPNLVCSRTHKWCKYVF-OH; disulfide 2-17, 9-23, 16-30)", "values": [{"measurement": "IC50", "setting": "hNav1.3; use-dependent block, hNav1.3", "value": 3.1, "unit": "µM"}, {"measurement": "IC50", "setting": "hNav1.7; use-dependent block, hNav1.7", "value": "> 5", "unit": "µM"}, {"measurement": "IC50", "setting": "hNav1.5; use-dependent block, hNav1.5", "value": 12.6, "unit": "µM"}]}, {"compound": "CC[C@H](C)[C@@H]1NC(=O)[C@@H]2CSSC[C@@H]3NC(=O)[C@H](C(C)C)NC(=O)[C@H](CC(C)C)NC(=O)[C@H](CC(N)=O)NC(=O)[C@@H]4CCCN4C(=O)[C@H](CCCNC(=N)N)NC(=O)[C@H](CSSC[C@H](NC(=O)[C@@H](N)CC(=O)O)C(=O)N[C@@H](CC(C)C)C(=O)NCC(=O)N[C@@H](C)C(=O)N[C@@H](Cc4ccccc4)C(=O)N[C@@H](CCCNC(=N)N)C(=O)N[C@@H](CCCCN)C(=O)N2)NC(=O)[C@H](CSSC[C@@H](C(=O)N[C@@H](CCCCN)C(=O)N[C@@H](Cc2ccc(O)cc2)C(=O)N[C@H](C(=O)N[C@@H](Cc2ccccc2)C(=O)O)C(C)C)NC(=O)[C@H](Cc2c[nH]c4ccccc24)NC(=O)[C@H](CCCNC(=N)N)NC(=O)[C@H](Cc2c[nH]cn2)NC(=O)[C@H]([C@@H](C)O)NC(=O)[C@H](CCCNC(=N)N)NC(=O)[C@H](CO)NC3=O)NC(=O)[C@H](CCCCN)NC(=O)[C@H](CC(=O)O)NC(=O)[C@H](Cc2ccc(O)cc2)NC(=O)[C@H](CC(=O)O)NC(=O)[C@@H]2CCCN2C1=O", "note": "[compound 597] (H-DCLGAFRKCIPDYDKCCRPNLVCSRTHRWCKYVF-OH; disulfide 2-17, 9-23, 16-30)", "values": [{"measurement": "IC50", "setting": "hNav1.3; use-dependent block, hNav1.3", "value": 1.1, "unit": "µM"}, {"measurement": "IC50", "setting": "hNav1.7; use-dependent block, hNav1.7", "value": "> 5", "unit": "µM"}, {"measurement": "IC50", "setting": "hNav1.5; use-dependent block, hNav1.5", "value": 7.35, "unit": "µM"}]}]}
